Test results published in patent US9393221B2, “Methods and compounds for reducing intracellular lipid storage” (THE GENERAL HOSPITAL CORPORATION, priority 2011, dated 2016).
Where a name gives a salt, the structure may show the parent alone.

tested on: ATGL-KO iPSCs; assay: High throughput iPSC chemical screening, Oil Red O (ORO) lipid accumulation; format: cell-based, mouse; details: glycolytic switch compounds; on Z-score: test concentration or dose not given here

| Compound | Rank in normalized ORO score from screen |
| --- | --- |
| CC1=CC(=O)c2ccccc2C1=O [Menadione] | 517 |
| CSc1ccc2c(c1)C(N1CCN(C)CC1)Cc1ccccc1S2.O=C(O)/C=C\C(=O)O (centres unmarked) [Methiothepin maleate] | 658 |

same assay, conditions: normalized ORO level vs DMSO-treated cells; compound present during 7 days differentiation, 96-well; negative = decrease in lipid accumulation

| Compound | Z-score |
| --- | --- |
| CCN(CC)CCNC(=O)COc1ccc(OC)cc1 [Mefexamide hydrochloride] | −0.2169 |
| CC(=O)O[C@]1(C(C)=O)CC[C@H]2[C@@H]3C=C(C)C4=CC(=O)CC[C@]4(C)[C@H]3CC[C@@]21C [Megestrol acetate] | 1.362 |
| CNC[C@H](O)[C@@H](O)[C@H](O)[C@H](O)CO [Meglumine] | −1.1536 |
| COc1ccc2[nH]cc(CCNC(C)=O)c2c1 [Melatonin] | 0.08162 |
| CC12CC3CC(C)(C1)CC(N)(C3)C2 [Memantine Hydrochloride] | −1.2487 |
| CC1=CC(=O)c2ccccc2C1=O [Menadione] | −0.29 |
| C[N+]1(C)CCCC(OC(=O)C(O)(c2ccccc2)c2ccccc2)C1 (centres unmarked) [Mepenzolate bromide] | −0.115 |
| Cc1ccccc1OCC(O)CO (centres unmarked) [Mephenesin] | −0.9401 |
| CCC1(c2ccccc2)NC(=O)N(C)C1=O (centres unmarked) [Mephenytoin] | 0.8864 |
| CCCNC(C)(C)COC(=O)c1ccccc1 [Meprylcaine hydrochloride] | −0.9597 |
| CCC1(c2cccc(O)c2)CCCCN(C)C1 (centres unmarked) [Meptazinol hydrochloride] | −1.0631 |
| C[C@@H](O)[C@H]1C(=O)N2C(C(=O)O)=C(S[C@@H]3CN[C@H](C(=O)N(C)C)C3)[C@H](C)[C@H]12 [Meropenem] | 0.5806 |
| Nc1ccc(O)c(C(=O)O)c1 [Mesalamine] | −0.1803 |
| CN1CCCCC1CCN1c2ccccc2Sc2ccc([S+](C)[O-])cc21 (centres unmarked) [Mesoridazine besylate] | −0.5525 |
| C=N[C@@H](C(=O)N[C@@H]1C(=O)N2[C@@H]1SC(C)(C)[C@@H]2C(=O)O)c1ccccc1 [Metampicillin sodium salt] | 0.638 |
| CNCC(O)c1ccc(O)c(OC)c1.Cl (stereo not drawn) [Metanephrine hydrochloride DL] | −1.0419 |
| C[C@H](N)[C@H](O)c1cccc(O)c1 [Metaraminol bitartrate] | −0.9024 |
| CN1C[C@H](CNC(=O)OCc2ccccc2)C[C@@H]2c3cccc4c3c(cn4C)C[C@H]21 [Metergoline] | 0.5474 |
| CN(C)C(=N)N=C(N)N [Metformin hydrochloride] | 0.7664 |
| CC(=O)OC(C)C[N+](C)(C)C (centres unmarked) [Methacholine chloride] | −0.8044 |
| C=C1c2cccc(O)c2C(=O)C2=C(O)[C@]3(O)C(=O)C(C(N)=O)=C(O)[C@@H](N(C)C)[C@@H]3[C@@H](O)[C@H]12 [Methacycline hydrochloride] | 2.309 |

| Compound | Z-score |
| --- | --- |
| CC[N+](C)(CC)CCOC(=O)C1c2ccccc2Oc2ccccc21 [Methantheline bromide] | −0.7033 |
| CN(C)CCN(Cc1cccs1)c1ccccn1 [Methapyrilene hydrochloride] | −0.1861 |
| CC(=O)/N=c1/sc(S(N)(=O)=O)nn1C [Methazolamide] | 0.06841 |
| COC(=O)Nc1nc2ccc(SC(C)C)cc2[nH]1 [Methiazole] | 19.8245 |
| Cn1cc[nH]c1=S [Methimazole] | 0.6934 |
| CS(=N)(=O)CC[C@H](N)C(=O)O (some centres unmarked) [Methionine sulfoximine (L)] | −0.2829 |
| CSc1ccc2c(c1)C(N1CCN(C)CC1)Cc1ccccc1S2.O=C(O)/C=C\C(=O)O (centres unmarked) [Methiothepin maleate] | 0.08061 |
| COc1ccccc1OCC(O)COC(N)=O (centres unmarked) [Methocarbamol] | −1.1429 |
| CN(Cc1cnc2nc(N)nc(N)c2n1)c1ccc(C(=O)N[C@@H](CCC(=O)O)C(=O)O)cc1 [Methotrexate] | 7.697 |
| COc1ccc2c(c1)N(C[C@H](C)CN(C)C)c1ccccc1S2.O=C(O)/C=C\C(=O)O [Methotrimeprazine maleat salt] | 1.548 |
| COc1ccc(OC)c(C(O)C(C)N)c1 (centres unmarked) [Methoxamine hydrochloride] | 0.4239 |
| COc1ccc2[nH]c3c(c2c1)CCN=C3C [Methoxy-6-harmalan] | 1.201 |
| COc1c2occc2cc2ccc(=O)oc12 [Methoxy-8-psoralen] | 1.942 |
| Cc1cc(C(C)(C)CC(C)(C)C)ccc1OCCOCC[N+](C)(C)Cc1ccccc1.[Cl-] [Methyl benzethonium chloride] | 12.6356 |
| C[N+]1(C)[C@@H]2CC[C@H]1C[C@@H](OC(=O)C(CO)c1ccccc1)C2 (some centres unmarked) [Methylatropine nitrate] | −1.1494 |
| C[C@](N)(Cc1ccc(O)c(O)c1)C(=O)O [Methyldopa (L,−)] | 0.02395 |
| CCOC(=O)[C@@](C)(N)Cc1ccc(O)c(O)c1 [Methyldopate hydrochloride] | 0.5054 |
| CC[C@@H](CO)NC(=O)[C@@H]1C=C2c3cccc4[nH]cc(c34)C[C@H]2N(C)C1 [Methylergometrine maleate] | 0.02492 |
| C[C@H]1NC(=O)NC1=O [Methylhydantoin-5-(D)] | −0.6204 |
| C[C@@H]1NC(=O)NC1=O [Methylhydantoin-5-(L)] | −0.97 |
| C[C@H]1C[C@@H]2[C@H]([C@@H](O)C[C@@]3(C)[C@H]2CC[C@]3(O)C(=O)CO)[C@@]2(C)C=CC(=O)C=C12 [Methylprednisolone, 6-alpha] | −1.1745 |

| Compound | Z-score |
| --- | --- |
| Cc1cc2c(cc1S(N)(=O)=O)S(=O)(=O)CCC2 [Meticrane] | −0.0455 |
| CN1CCCC(CC2c3ccccc3Sc3ccccc32)C1 (centres unmarked) [Metixene hydrochloride] | −0.8136 |
| CCN(CC)CCNC(=O)c1cc(Cl)c(N)cc1OC [Metoclopramide monohydrochloride] | −1.0824 |
| Cc1ccccc1N1C(=O)c2cc(S(N)(=O)=O)c(Cl)cc2NC1C (centres unmarked) [Metolazone] | −0.7452 |
| CC(=O)Nc1c(I)c(C(=O)N[C@H]2C(O)O[C@H](CO)[C@@H](O)[C@@H]2O)c(I)c(N(C)C(C)=O)c1I (some centres unmarked) [Metrizamide] | 1.8943 |
| Cc1ncc([N+](=O)[O-])n1CCO [Metronidazole] | 0.716 |
| CC(C)(C(=O)c1cccnc1)c1cccnc1 [Metyrapone] | −1.7744 |
| C[C@@]1(O)CCOC(=O)C1 [Mevalonic-D, L acid lactone] | −1.4333 |
| Cc1cccc(C)c1OCC(C)N (centres unmarked) [Mexiletine hydrochloride] | 1.054 |
| CN1CCN2c3ccccc3Cc3ccccc3C2C1 (centres unmarked) [Mianserine hydrochloride] | −1.3517 |
| Clc1ccc(COC(Cn2ccnc2)c2ccc(Cl)cc2Cl)c(Cl)c1 (centres unmarked) [Miconazole] | −0.018 |
| COc1ccc(OC)c(C(O)CNC(=O)CN)c1 (centres unmarked) [Midodrine hydrochloride] | −0.5001 |
| CC#C[C@]1(O)CC[C@H]2[C@@H]3CCC4=CC(=O)CCC4=C3[C@@H](c3ccc(N(C)C)cc3)C[C@@]21C [Mifepristone] | −0.6348 |
| Cc1[nH]c(=O)c(C#N)cc1-c1ccncc1 [Milrinone] | −0.2851 |
| NC(Cn1ccc(=O)c(O)c1)C(=O)O (centres unmarked) [Mimosine] | 0.9075 |
| Cc1cc(-c2ccccc2)nnc1NCCN1CCOCC1 [Minaprine dihydrochloride] | 0.429 |
| CN(C)c1ccc(O)c2c1C[C@H]1C[C@H]3[C@H](N(C)C)C(O)=C(C(N)=O)C(=O)[C@@]3(O)C(O)=C1C2=O [Minocycline hydrochloride] | 5.776 |
| Nc1cc(N2CCCCC2)nc(N)[n+]1[O-] [Minoxidil] | 0.06676 |
| O=C1c2c(O)ccc(O)c2C(=O)c2c(NCCNCCO)ccc(NCCNCCO)c21 [Mitoxantrone dihydrochloride] | 45.2169 |
| CCc1c(C)[nH]c2c1C(=O)C(CN1CCOCC1)CC2 (centres unmarked) [Molindone hydrochloride] | 2.263 |
| CCOC(=O)[N-]c1cn(N2CCOCC2)n[o+]1 [Molsidomine] | 1.761 |

| Compound | Z-score |
| --- | --- |
| C[C@@H]1C[C@H]2[C@@H]3CCC4=CC(=O)C=C[C@]4(C)[C@@]3(Cl)[C@@H](O)C[C@]2(C)[C@@]1(OC(=O)c1ccco1)C(=O)CCl [Mometasone furoate] | −0.7613 |
| CC[C@@]1([C@@H]2O[C@@H]([C@H]3O[C@@](O)(CO)[C@H](C)C[C@@H]3C)C[C@@H]2C)CC[C@H]([C@]2(C)CC[C@]3(C[C@H](O)[C@@H](C)[C@@H]([C@@H](C)[C@@H](OC)[C@H](C)C(=O)O)O3)O2)O1 [Monensin sodium salt] | 18.1768 |
| Oc1ccc(OCc2ccccc2)cc1 [Monobenzone] | −1.7289 |
| C[C@H]1C(=O)O[C@@H]2CCN3CC=C(COC(=O)[C@](C)(O)[C@]1(C)O)[C@H]23 [Monocrotaline] | −1.7819 |
| Cc1ccsc1/C=C/C1=NCCCN1C [Morantel tartrate] | 1.005 |
| CCOC(=O)Nc1ccc2c(c1)N(C(=O)CCN1CCOCC1)c1ccccc1S2 [Moricizine hydrochloride] | −0.1525 |
| Cl.N=C(N=C(N)N)N1CCOCC1 [Moroxidine hydrochloride] | 0.05075 |
| CO[C@@]1(NC(=O)C(C(=O)O)c2ccc(O)cc2)C(=O)N2C(C(=O)O)=C(CSc3nnnn3C)CO[C@@H]21 (some centres unmarked) [Moxalactam disodium salt] | −0.7608 |
| CC(=O)Oc1cc(C(C)C)c(OCCN(C)C)cc1C.Cl [Moxisylyte hydrochoride] | −0.4722 |
| COc1nc(C)nc(Cl)c1N=C1NCCN1 [Moxonidine] | −0.6893 |
| COc1c(C)c2c(c(O)c1C/C=C(\C)CCC(=O)O)C(=O)OC2 [Mycophenolic acid] | 36.1922 |
| c1cncc(C2=NCCC2)c1 [Myosmine] | 0.265 |
| O=c1c(O)c(-c2cc(O)c(O)c(O)c2)oc2cc(O)cc(O)c12 [Myricetin] | 27.33 |
| CNc1ncnc2c1ncn2[C@@H]1O[C@H](CO)[C@@H](O)[C@H]1O [N6-methyladenosine] | −0.5287 |
| CC(=O)N[C@@H](CC(C)C)C(=O)O [N-Acetyl-L-leucine] | −1.2512 |
| COc1ccc2cc(CCC(C)=O)ccc2c1 [Nabumetone] | −0.6754 |
| NC(=O)c1ccc[n+]([C@@H]2O[C@H](COP(=O)([O-])OP(=O)(O)OC[C@H]3O[C@@H](n4cnc5c(N)ncnc54)[C@H](O)[C@@H]3O)[C@@H](O)[C@H]2O)c1 [Nadide] | 0.1385 |
| CC(C)(C)NCC(O)COc1cccc2c1CC(O)C(O)C2 (centres unmarked) [Nadolol] | −1.7201 |
